Experimental findings from patent US7214707B2, “Dimeric compounds and their use as anti-viral agents” (Biota Scientific Management Pty Ltd., priority 2001, dated 2007) are described below.

Values after ≈ are worked out from the molar mass of the structure shown. Counter-ions that a name gives are not always drawn. Like-named read-outs stand apart in the source and are kept apart here. A value given as a limit tells only on which side of the number the result lay.

One series relates to B/Hong Kong/5/72 BVLV012. As to the kind of experiment: Plaque reduction assay (PRA) in MDCK cells. It is filed as cell-based, influenza virus. Particulars: read-out: EC50 PRA B/HongK. (Plaques are areas of infected cells; plaque reduction assays count them against a control.)
Series [1] deals with A/Bayem/7/95 BVL006 (H1N1). As to the kind of experiment: Plaque reduction assay (PRA) in MDCK cells. It is filed as cell-based. To be noted: Influenza A virus, read-out: EC50 PRA A/Bay.
A further series concerns Influenza A/Sydney/5/97. The series can be described thus: Cytopathic effect (CPE) assay in MDCK cells, MTT readout. It is filed as cell-based, influenza virus. Particulars: concentration inhibiting CPE by 50%, up to 72 hours.
For series [2], the system named is A/New Caledonia/20/99 BVLV008 (H1N1). As to the kind of experiment: Plaque reduction assay (PRA) in MDCK cells. It is filed as cell-based. Particulars: Influenza A virus, read-out: EC50 PRA A/New.
Series [3] has as its system A/Sydney/5/97 BVLV015 (H3N2). As to the kind of experiment: Plaque reduction assay (PRA) in MDCK cells. It is filed as cell-based. Particulars: Influenza A virus, read-out: EC50 PRA A/Syd.
Series [4] concerns B/Yamanashi/166/98 BVLV007. As to the kind of experiment: Plaque reduction assay (PRA) in MDCK cells. It is filed as cell-based. To be noted: influenza B virus, read-out: EC50 PRA B/Yam, reduces plaque numbers by 50%, MDCK cells.
Series [5] is described as follows: Rat lung retention after intra-tracheal dosing (long duration of action). To be noted: in vivo. How it is done: Rodents are anaesthetised and dosed with compound of interest by the intra-tracheal route at a dose volume of 0.8 ml/kg. The rodent is then held in the vertical position until full recovery is achieved. […] Any analytical method suitable for detection of this type of compound may be used. The time at which levels of compound fall below the sensitivity of the analytical techniques identified will determine the residency time of the compound in lung tissue.
Please note that all experiments included a co-dosed internal standard, namely compound 3 of International Patent Publication No. WO 02/20514, to permit comparison. The data are expressed as a ratio with respect to this compound, the structure of which is shown below.
The data for compound A is included for comparison purposes.

The next series concerns Influenza B/Harbin/7/95. The series can be described thus: Cytopathic effect (CPE) assay in MDCK cells, MTT readout. It counts as cell-based, influenza virus. Particulars: concentration inhibiting CPE by 50%, up to 72 hours. On the technique in general: Protection from cytopathic effect is a common read-out in antiviral testing.
Series [6] has as its system A/Victoria/3/75 BVLV017 (H3N2). The series can be described thus: Plaque reduction assay (PRA) in MDCK cells. It is filed as cell-based. To be noted: Influenza A virus, read-out: EC50 PRA A/Vic.
In series [7] the test system is A/Panama/2007/99 BVLV008 (H3N2). The series can be described thus: Plaque reduction assay (PRA) in MDCK cells. It is filed as cell-based. To be noted: Influenza A virus, read-out: EC50 PRA A/Pan.
In the next series the test system is A/WSN/33 BVLV09 (H1N1). As to the kind of experiment: Plaque reduction assay (PRA) in MDCK cells. It counts as cell-based. Particulars: Influenza A virus, read-out: EC50 PRA A/WSN.
Another series relates to B/Harbin/7/95 BVLV008. The series can be described thus: Plaque reduction assay (PRA) in MDCK cells. It is filed as cell-based, influenza virus. Particulars: read-out: EC50 PRA B/Harb.
Setting [8] is: reduces plaque numbers by 50%, MDCK cells.

Regarding `CC(=O)N[C@H]1[C@H]([C@H](OC(=O)NCc2ccc(-c3ccc(CNC(=O)O[C@@H]([C@@H]4OC(C(=O)O)=C[C@H](NC(=N)N)[C@H]4NC(C)=O)[C@H](O)CO)cc3)cc2)[C@H](O)CO)OC(C(=O)O)=C[C@@H]1NC(=N)N` [Example 9, (2R,3R,4S)-3-(acetylamino)-2-{(1R,2R)-1-[({[(4′-{[({[(1R,2R)-1-((2R,3R,4S)-3-(acetylamino)-4-{[amino(imino)methyl]amino}-6-carboxy-3,4-dihydro-2H-pyran-2-yl)-2,3-dihydroxypropyl]oxy}carbonyl)amino]methyl}-1,1′-biphenyl-4-yl)methyl]amino}carbonyl)oxy]-2,3-dihydroxypropyl}-4-{[amino(imino)methyl]amino}-3,4-dihydro-2H-pyran-6-carboxylic Acid bis TFA Salt], the EC50 in the series on B/Hong Kong/5/72 BVLV012 is 0.23 ng/mL; in series [1] (H1N1, reduces plaque numbers by 50%, MDCK cells), over 1 ng/mL; in [2] (setting [8]) it was 0.003 ng/mL; in series [3] (setting [8]) it was 3.7 ng/mL; in [4], 0.006 ng/mL. Also, the “ID50 A/Sydney/5/97” value with Influenza A/Sydney/5/97 is over 100 ng/mL. Further, the “Ratio Mean (lung) (cmpd)/PCT AU01/01128 compound 3” value (“Ratio Mean (lung)” below) in [5] (0.1 mg/kg, 48 h) was 0.52; in series [5] (0.1 mg/kg, 168 h), 0.45. The molecule further returned a concentration at 48 h in series [5] (0.1 mg/kg, Mean (cmpd) ng/g) of 1400 ng/g. Also, the concentration at 168 h in series [5] (0.1 mg/kg, Mean (cmpd) ng/g) stood at 835 ng/g. Besides, the “ID50 B/Harbin/7/95” value in the series on Influenza B/Harbin/7/95 was 0.08 ng/mL.

Consider `CC(=O)N[C@H]1[C@H]([C@H](OC(=O)NCCc2ccc(CCNC(=O)O[C@@H]([C@@H]3OC(C(=O)O)=C[C@H](NC(=N)N)[C@H]3NC(C)=O)[C@H](O)CO)cc2)[C@H](O)CO)OC(C(=O)O)=C[C@@H]1NC(=N)N` [Example 2, (2R,3R,4S)-3-(acetylamino)-2-{(1R,2R)-1-[({[2-(4-{2-[({[(1R,2R)-1-((2R,3R,4S)-3-(acetylamino)-4-{[amino(imino)methyl]amino}-6-carboxy-3,4-dihydro-2H-pyran-2-yl)-2,3-dihydroxypropyl]oxy}carbonyl)amino]ethyl}phenyl)ethyl]amino}carbonyl)oxy]-2,3-dihydroxypropyl}-4-{[amino(imino)methyl]amino}-3,4-dihydro-2H-pyran-6-carboxylic Acid], for which the “Ratio Mean (lung)” value came to 0.44 in series [5] (0.1 mg/kg, 48 h) and 0.34 in series [5] (0.1 mg/kg, 168 h). Further, the concentration at 48 h in series [5] (0.1 mg/kg, (cmpd) ng/g) was found to be 740 ng/g; in [5] (0.1 mg/kg, Mean (cmpd) ng/g), 603 ng/g. The same molecule had a concentration at 168 h in [5] (0.1 mg/kg, Mean (cmpd) ng/g) of 259 ng/g.

On to `CC(=O)N[C@H]1[C@H]([C@H](O)[C@H](O)CO)OC(C(=O)O)=C[C@@H]1N=C(N)N` [Compound A, 4-guanidino-2-deoxy-2,3-dehydro-N-acetylneuraminic acid, reference compound], for which the EC50 was found to be 21 ng/mL (≈ 63.2 nM) with B/Hong Kong/5/72 BVLV012; 5.5 ng/mL (≈ 16.6 nM) in series [6]; 35 ng/mL (≈ 105 nM) in series [1] (H1N1, MDCK); 0.27 ng/mL (≈ 0.812 nM) in series [2]; 2.7 ng/mL (≈ 8.12 nM) in series [7]; 2.4 ng/mL (≈ 7.22 nM) in series [3]. The EC50 in the series on A/WSN/33 BVLV09 (H1N1) was found to be 56 ng/mL (≈ 169 nM); with B/Harbin/7/95 BVLV008, 0.19 ng/mL (≈ 0.572 nM). For the same molecule, the “Ratio Mean (lung)” value was found to be 0.26 in [5] (0.1 mg/kg, 48 h) and 0.08 in series [5] (0.1 mg/kg, 168 h).

Take `CC(=O)N[C@H]1[C@H]([C@H](OC(=O)NCc2ccc(S(=O)(=O)c3ccc(CNC(=O)O[C@@H]([C@@H]4OC(C(=O)O)=C[C@H](NC(=N)N)[C@H]4NC(C)=O)[C@H](O)CO)cc3)cc2)[C@H](O)CO)OC(C(=O)O)=C[C@@H]1NC(=N)N` [Example 4, (2R,3R,4S)-3-(acetylamino)-2-[(1R,2R)-1-({[({4-[(4-{[({[(1R,2R)-1((2R,3R,4S)-3-(acetylamino)-4-{[amino(imino)methyl]amino}-6-carboxy-3,4-dihydro-2H-pyran-2-yl)-2,3-dihydroxypropyl]oxy}-carbonyl)amino]methyl}phenyl)sulfonyl]phenyl}methyl)amino]carbonyl}oxy)-2,3-dihydroxypropyl]-4-{[amino(imino)methyl]amino}-3,4-dihydro-2H-pyran-6-carboxylic Acid]: in the series on Influenza A/Sydney/5/97, the “ID50 A/Sydney/5/97” value was over 100 ng/mL. For the same molecule, the “ID50 B/Harbin/7/95” value in the series with Influenza B/Harbin/7/95 is under 0.05 ng/mL.

Take `CCOC(=O)C1=C[C@@H](OC(CC)CC)[C@H](NC(C)=O)[C@@H](N)C1` [Oseltamivir]: the EC50 worked out at 32 ng/mL (≈ 102 nM) with B/Hong Kong/5/72 BVLV012; 0.11 ng/mL (≈ 0.352 nM) in series [6] (setting [8]); 0.23 ng/mL (≈ 0.736 nM) in series [2] (setting [8]); 0.3 ng/mL (≈ 0.96 nM) in [7] (setting [8]); 0.7 ng/mL (≈ 2.24 nM) in [4].

With `CC(=O)N[C@H]1[C@H]([C@H](OC(=O)Nc2ccc(Cc3ccc(NC(=O)O[C@@H]([C@@H]4OC(C(=O)O)=C[C@H](NC(=N)N)[C@H]4NC(C)=O)[C@H](O)CO)cc3)cc2)[C@H](O)CO)OC(C(=O)O)=C[C@@H]1NC(=N)N` [Example 8, (2R,3R,4S)-3-(acetylamino)-2-{(1R,2R)-1-[({[4-({4-[({[(1R,2R)-1-((2R,3R,4S)-3-(acetylamino)-4-{[amino(imino)methyl]amino}-6-carboxy-3,4-dihydro-2H-pyran-2-yl)-2,3-dihydroxypropyl]oxy}carbonyl)amino]phenyl}methyl)phenyl]amino}carbonyl)oxy]-2,3-dihydroxypropyl}-4-{[amino(imino)methyl]amino}-3,4-dihydro-2H-pyran-6-carboxylic Acid bis TFA Salt], the EC50 in series [6] (setting [8]) was 0.003 ng/mL; in series [2] (setting [8]) it was 0.0001 ng/mL; in [4], 0.02 ng/mL; in the series with B/Harbin/7/95 BVLV008, under 0.0001 ng/mL. For the same molecule, the “ID50 A/Sydney/5/97” value with Influenza A/Sydney/5/97 came to 13 ng/mL. Further, the “Ratio Mean (lung)” value was 1.05 in series [5] (0.4 mg/kg, 48 h) and 2.28 in series [5] (0.4 mg/kg, 168 h). In addition, in [5] (0.4 mg/kg, 168 h), the “(lung)” value amounted to 3571 ng/g. Further, the concentration at 48 h came out at 3800 ng/g in [5] (0.4 mg/kg, (lung) ng/g) and 3250 ng/g in [5] (0.4 mg/kg, Mean (lung) ng/g). Moreover, the concentration at 168 h worked out at 3230 ng/g in series [5] (0.4 mg/kg, (lung) ng/g) and 3400 ng/g in series [5] (0.4 mg/kg, Mean (lung) ng/g). Moreover, the “ID50 B/Harbin/7/95” value with Influenza B/Harbin/7/95 was under 0.05 ng/mL.

As for `NC12CC3CC(CC(C3)C1)C2` [Amantadine], the EC50 was over 10000 ng/mL with B/Hong Kong/5/72 BVLV012, 220 ng/mL (≈ 1450 nM) in series [6] (setting [8]), 11 ng/mL (≈ 72.7 nM) in series [2] (setting [8]) and 157 ng/mL (≈ 1040 nM) in [7] (setting [8]).

With `CC(=O)N[C@H]1[C@H]([C@H](OC(=O)NCCc2cccc(CCNC(=O)O[C@@H]([C@@H]3OC(C(=O)O)=C[C@H](NC(=N)N)[C@H]3NC(C)=O)[C@H](O)CO)c2)[C@H](O)CO)OC(C(=O)O)=C[C@@H]1NC(=N)N` [Example 1, (2R,3R,4S)-3-(acetylamino)-2-{(1R,2R)-1-[({[2-(3-{2-[({[(1R,2R)-1-((2R,3R,4S)-3-(acetylamino)-4-{[amino(imino)methyl]amino}-6-carboxy-3,4-dihydro-2H-pyran-2-yl)-2,3-dihydroxypropyl]oxy}carbonyl)amino]ethyl}phenyl)ethyl]amino}carbonyl)oxy]-2,3-dihydroxypropyl}-4-{[amino(imino)methyl]amino}-3,4-dihydro-2H-pyran-6-carboxylic Acid], the “ID50 A/Sydney/5/97” value in the series with Influenza A/Sydney/5/97 came to 84 ng/mL (≈ 95.4 nM). Also, in the series with Influenza B/Harbin/7/95, the “ID50 B/Harbin/7/95” value was 0.2 ng/mL (≈ 0.227 nM).
